# In EP2829880A1, “Method for identifying modulators of BCRP/ABCG2-mediated ATP release and use of said modulators for treating diseases” (Energeia Biosciences, priority 2013, dated 2015):
# Like-named read-outs stand apart in the source and are kept apart here.
# T1: BCRP (ABCG2) (Homo sapiens, UniProt Q9UNQ0)
# T1 sequence (Q9UNQ0 1-655): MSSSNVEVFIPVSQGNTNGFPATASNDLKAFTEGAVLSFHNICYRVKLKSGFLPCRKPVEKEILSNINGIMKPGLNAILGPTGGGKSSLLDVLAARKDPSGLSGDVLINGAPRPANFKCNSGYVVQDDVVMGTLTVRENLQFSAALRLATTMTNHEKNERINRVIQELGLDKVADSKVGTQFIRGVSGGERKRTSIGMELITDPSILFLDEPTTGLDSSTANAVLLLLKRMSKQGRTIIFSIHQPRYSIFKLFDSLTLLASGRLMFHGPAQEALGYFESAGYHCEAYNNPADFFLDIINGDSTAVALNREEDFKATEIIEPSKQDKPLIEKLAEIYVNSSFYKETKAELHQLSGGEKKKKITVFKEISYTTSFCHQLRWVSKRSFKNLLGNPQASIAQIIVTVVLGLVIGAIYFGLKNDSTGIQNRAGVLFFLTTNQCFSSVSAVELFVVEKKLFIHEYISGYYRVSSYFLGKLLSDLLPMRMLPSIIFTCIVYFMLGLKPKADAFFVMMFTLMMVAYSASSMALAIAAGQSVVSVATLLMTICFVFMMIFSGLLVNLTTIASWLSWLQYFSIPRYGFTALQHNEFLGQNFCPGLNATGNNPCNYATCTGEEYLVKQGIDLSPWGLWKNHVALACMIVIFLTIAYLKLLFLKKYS
# B1: BCRP (ABCG2) (Homo sapiens) (protein)
# chain: T1 sequence (Q9UNQ0 1-655)
# Tests used:
# [1] = biological target: T1, BCRP (ABCG2); assay: in vitro
# Text: The uptake of ATP is plotted in pmol/mg protein/min. […] The uptake of a [3H] or [32P]-radiolabelled ATP by an ABC drug transporter selected from the group consisting of BCRP (ABCG2) or MRP1-6 (ABCC1-6) into membrane vesicles (stably overexpressing one type of ABC transporter) under conditions of low pH (compared with physiological pH) can be studied by radiochemical analysis. Subsequently, the effect of a test compound on the ABC drug transporter-mediated ATP release can be studied at different pH values (not shown in figure). • Figure 6: Schematic representation of the ABC drug transporter mediated-ATP-release assay. The transport of a [3H] or [32P]-radiolabelled ATP by an ABC drug transporter selected from the group consisting of BCRP (ABCG2) or MRP1-6 (ABCC1-6) into MDCKII cells (stably overexpressing one type of ABC drug transporter) under conditions of low extracellular pH (compared with physiological pH) and/or hypoxic conditions (0-1% O2, 5% CO2, 94-95% N2) (compared with normoxic conditions (20% O2, 5% CO2, 75% N2)) can be studied by radiochemical analysis or HPLC. Subsequently, the effect of a test compound on the ABC drug transporter-mediated ATP release can be studied at different pH values (not shown in figure). • Figure 7: Schematic representation of ABCG2 expression in normal tissues. Arrows indicate direction of substrate transport. In the brain and testis, ABCG2 is expressed mainly in the blood vessel endothelium, forming part of the blood-brain and blood-testis barrier, respectively. (from: Robey et al. Curr Pharm Biotechnol 2011) • Figure 8: Table 1: Cellular localization and function of ion exchange pumps • Figure 9: Table 2: Protein and/or gene expression of MRP/Mrp isoforms in various brain compartments in human and in mouse and in rat. Table adapted from Dallas et al. (45). • Figure 10: Chemical structure of Danshen compounds • Fig. 10 A: Chemical structures of compounds from Danshen (Salvia miltiorrhiza) • Fig. 10 B: Chemical structures of main lipophilic compounds from Danshen • Fig. 10 C: Chemical structure of main hydrophilic compounds from Danshen • Fig. 10 D: Chemical structure of Magnesium lithospermate B • Fig. 10 E: Chemical structure of salvianolic acid B • Fig. 10 F: Chemical structure of Indirubin
# Membrane vesicles from (ABC transporter-transfected) Sf9 cells were prepared in isotonic vesicle buffer consisting of 50 mM Tris and 250 mM sucrose adjusted to pH 7.4. Vesicular transport assays were performed in vesicular transport assay buffer (50 mM HEPES/KOH, 100 mM KCI) as described before (Breedveld et al., 2004, 2007). The vesicular transport assay buffer and the solutions of all other reagents used in transport assays were adjusted to the appropriate pH (pH 6 or pH 7.4) by adding aliquots of HCl (37% w/w) for low pH. The pH of the final solution was controlled (Breedveld et al., 2007). […]
# Curve fitting was performed by nonlinear regression analysis using the software package Graphpad Prism version 4 (GraphPad Software, San Diego, USA). Data from concentration-dependent transport assays were analyzed according to the classical Michaelis-Menten model (eq. 1) (Rowland and Tozer, 1995): v = (Vmax x [S])/(Km + [S]) [formula] where v is the rate of transport, Vmax is the maximum velocity, S is the substrate concentration, and Km is the substrate concentration at half-maximum velocity.
# [2] = biological target: T1, BCRP (ABCG2); design: made in house; host or cells: Sf9 insect cells (membrane vesicles); details: 1 µM MTX; cited from earlier work
# [3] = cited from earlier work
# [4] = substrate: Nc1ncnc2c1ncn2[C@@H]1O[C@H](COP(=O)(O)OP(=O)(O)OP(=O)(O)O)[C@@H](O)[C@H]1O; assay: cells, lysate or membranes named; details: other: pH 6, saturable transport, 37°C, 5 min (Fig. 2A)
molecule,measurement,setting,value
"CN(Cc1cnc2nc(N)nc(N)c2n1)c1ccc(C(=O)N[C@@H](CCC(=O)O)C(=O)O)cc1 [MTX, methotrexate]",inhibition at 100 µM,[1]; pH 6,~46%
same,ATP-dependent transport by BCRP at pH 5.1 relative to physiological pH,[2],7 fold
"Nc1ncnc2c1ncn2[C@@H]1O[C@H](COP(=O)(O)OP(=O)(O)OP(=O)(O)O)[C@@H](O)[C@H]1O [[^3H]ATP, adenosine 5'-triphosphate]",transport by BCRP at pH 6 relative to physiological pH,"[1]; 0.5 min, 100 µM, pH 6",3.8 fold
"Nc1ncnc2c1ncn2[C@@H]1O[C@H](COP(=O)(O)OP(=O)(O)OP(=O)(O)O)[C@@H](O)[C@H]1O [[^32P]-γ-labeled-ATP, adenosine 5'-triphosphate]",net uptake into BCRP membrane vesicles,"[1]; 0.5 min, 100 µM, pH 6",80 pmol/mg protein
same,net uptake into BCRP membrane vesicles,"[1]; 10 min, 100 µM, pH 6",194 pmol/mg protein
COc1ccnc(C[S+]([O-])c2nc3ccc(OC(F)F)cc3[nH]2)c1OC (stereo not shown) [pantoprazole],IC50,[1],> 1000 µM
CCN(CC)CCNC(=O)c1c(C)[nH]c(/C=C2\C(=O)Nc3ccc(F)cc32)c1C [sunitinib],increase of brain accumulation,[3]; Abcb1a/b(-/-) mice,2.3 fold
same,increase of brain accumulation,[3]; Abcb1a/b/Abcg2(-/-) mice,23 fold
B1,Km,[4],2000 µM
same,Vmax,[4],1.5 nmoles/mg protein/min
